1 compound from US20100150948A1, “MATERIALS AND METHODS FOR IMPROVED IMMUNOGLYCOPROTEINS” (TRUBION PHARMACEUTICALS, INC., priority 2006, published 2010) can be followed below.

Values joined by “and” are separate entries in the source; they are usually repeats but may differ in a detail not shown here. Equal entries are not always repeated.

Assay [1] relates to BJAB B cells. Nature of the assay: ADCC activity, 51Cr release, PBMC effector cells. The class given is cell-based, human. Conditions: for ADCC activity (% specific killing) of TRU-015 purified protein: 0, 2, 5, 10, 30 or 100 μg/mL castanospermine in culture media. As to the method: To determine the ADCC activity of purified TRU-016, labeled BJAB B cells were used as targets and human peripheral blood mononuclear cells (PBMC) as effector cells. BJAB B cells (10^7 cells) were labeled with 500 μCi/mL ^51Cr sodium chromate for 2 hours at 37° C. in IMDM/10% FBS. PBMCs were isolated from heparinized, human whole blood by fractionation over Lymphocyte Separation Media (LSM, ICN Biomedical) gradients. Reagent samples were added to RPMI media with 10% FBS and serial dilutions of each reagent were prepared. The ^51Cr labeled BJAB were added at 2×10^4 cells/well. The PBMCs were then added at 5×10^5 cells/well for a final ratio of 25:1 effectors (PBMC):targets (BJAB). Reactions were set up in quadruplicate wells of a 96 well plate. Reactions were allowed to proceed for 6 hours at 37° C. in 5% CO2 prior to harvesting and counting. CPM released was measured on a Packard TopCounNXT from 50 μl dried culture supernatant. Percent specific killing was calculated by subtracting (cpm [mean of quadruplicate samples] of sample—cpm spontaneous release)/(cpm maximal release-cpm spontaneous release) x100, and data were plotted as % specific killing versus TRU-016 concentration.

Assay [2] deals with CHO cells transfected with TRU-016. Nature of the assay: Effect of castanospermine concentration on cell viability, density and specific protein production of TRU-016. Conditions: for Viability at Harvest (%): harvest day 8, duplicate flasks, listed as CS. The class given is cell-based, Chinese hamster. The procedure: Prior to initiation of the experiments, CHO cells transfected with TRU-016 were grown in shake flasks in Ex-Cell™ 302 CHO serum-free media (SAFC Biosciences) supplemented with 1× non-essential amino acids (MediaTech), 1× sodium pyruvate (MediaTech), 4 mM L-glutamine (MediaTech), 500 nM methotrexate (MP Biomedicals) and 1 mg/L recombinant insulin (Recombulin—GIBCO/Invitrogen Corp.) at 37° C. and 5% carbon dioxide in a humidified incubator. A 200 mM stock concentration of castanospermine (Alexis Biochemicals) was prepared by dilution of the castanospermine in sterile, distilled/deionized water (MediaTech) and filtration through a 13 mm Acrodisc® with a 0.2 μm HT Tuffryn membrane (Pall Corporation). Stock solution was aliquoted into sterile, O-ringed, 0.5 mL microcentrifuge tubes (Fisherbrand, Fisher Scientific) and frozen at −20° C. Approximately 1 hour prior to initiation of experiments, needed aliquots were thawed at room temperature and the contents of each vial mixed well by vortexing.
For each experiment, cells in log phase growth were seeded in the above medium into a total volume of 60 mL in 250 mL shaker flasks at a density of 200,000 cells/mL and CS added at the concentration to be tested. Final CS concentrations of 800 μM, 400 μM, 200 μM, 100 μM, 50 μM, 25 μM and 0 μM were each tested in duplicate flasks. All cultures were incubated at 37° C. and 5% carbon dioxide in a humidified incubator and monitored at least every other day for viable cell density and overall cell viability.
Cultures were harvested on day 8 when overall cell viability was 50-70% (Expt. 1) and 30-50% (Expt. 2). Cells and cellular debris were removed by centrifugation in a Sorvall Super T21 at 3000 rpm for 20 minutes after which the supernatant was sterile filtered through a Millipore Steriflip unit with a 0.22 μm Millipore Express Plus membrane and stored at 2-8° C. until purification.

Take `O[C@H]1[C@H](O)[C@@H](O)CN2CC[C@H](O)[C@H]12` [castanospermine]: the “ADCC activity (% specific killing) of TRU-016 purified protein” value in assay [1] (0, 10, 25, 50, 100 or 200 μM castanospermine in culture media) is “dose-dependent increase”. Also, the “ADCC (% specific killing) of TRU-016 purified protein” value in assay [1] (200 μM DMJ, 10 μM kifenunsine or 200 μM castanospermine in culture media) is listed as “improved ADCC”. For the same compound, the “ADCC activity (% specific killing) of TRU-015 purified protein” value in assay [1] (PBMC from high affinity (V/V158) CD16 donors) and in assay [1] (PBMC from low affinity (F/F158) CD16 donors) was “dose-dependent increase” each time. Besides, the “reduction of TRU-016 protein production” value in assay [2] (400 μm CS) was “approximately 40%”. For the same compound, the “Viability at Harvest (%)” value in assay [2] (CS 25 μM) was 53.9% and 54.5%; in assay [2] (CS 50 μM), 49.4% and 50.0%; in assay [2] (CS 100 μM) it was 54.4% and 54.6%; in assay [2] (CS 200 μM), 55.5% and 51.1%; in assay [2] (CS 400 μM) it was 65.7% and 68.2%; in assay [2] (CS 800 μM) it was 70.6% and 65.2%. Besides, in assay [2] (CS 25-800 μM), the “cell viability and growth as indicated by integral cell area (ICA)” value is “did not appear to be significantly affected”. Also, the immunoglycoprotein production entry in assay [2] (increasing concentrations of castanospermine, 25-800 μM) is “appeared to reduce”.
